Source: US12600796B2, “Constructs for chimeric antigen receptors” (Carisma Therapeutics Inc., priority 2020, dated 2026)

Experiments:
Human macrophages [1] = experiment: Viability, CAR expression and M1/M2 markers of HER2 CAR mRNA-electroporated macrophages treated with interferons; type: cell-based; conditions: for M1 phenotype (based on CD86 expression): FIG. 121E; for M2 markers (based on CD163 expression): FIG. 121F
Protocol: Human macrophages were electroporated with HER2 CAR mRNA comprising m6AGCap1 and PsU modifications. Cells were cultured with cytokines that induce an M1 phenotype such as IFN-alpha, IFN-beta, IFN-gamma, IFN-gamma plus lipopolysaccharide (LPS), TNF-alpha, IL-6 or a STING ligand (STING-L) for up to 48 hours and then cytokines were washed off and fresh media was added. CAR expression and M1 marker expression were measured on days 2 and 7 after transfection. Fluorescent labeled HER2+ breast cancer cells (CRL2351) were co-cultured with HER2 CAR macrophages two days after the macrophages were transfected. Cancer cell growth was monitored via its fluorescence on an Incucyte® live imaging microscope every four hours. The Effector (CAR macrophage) to Target (cancer cell) ratio was 5:1.
Five different mRNA modifications were also tested to determine if interferon treatment differentially affected macrophages transfected with mRNA comprising different modifications. Human macrophages were electroporated with HER2 CAR mRNA comprising different mRNA modifications. CAR expression and M1 markers were detected by Flow Cytometry (Attune) on day four after electroporation. Day 4 CAR macrophage cells were then co-cultured with a Nuc-Light labeled, HER2+ breast cancer cell line (CRL2351) at an Effector (CAR macrophage) to Target (cancer cell) ratio of 5:1. Cancer cell growth was monitored via its fluorescence on an Incucyte® live imaging microscope every four hours.
Human macrophages were electroporated with 300 nM CAR mRNA comprising m6AGCap1 and PsU modifications. Cells were cultured with 20 ng/mL IFNs for 24 hours and then the cells were washed to remove cytokines. CAR expression was detected by Flow Cytometry (Attune) on day 2 after transfection. Cells were then co-cultured with a Nuc-Light labeled, HER2+ breast cancer cell line (CRL2351) at the Effector to Target ratio of 3:1. Cancer cell growth was monitored via its fluorescence on an Incucyte® live imaging microscope. CAR expression and M1 markers in macrophages were detected by Flow Cytometry (Attune) on day 7 after transfection.

[2] = tested on: HER2+ breast cancer cells (CRL2351); experiment: Cytokine secretion of interferon-treated HER2 CAR macrophages co-cultured with cancer cells (MSD); type: cell-based, human; conditions: E:T 3:1, supernatant at 48 hours; FIG. 126
Protocol: Human macrophages were electroporated with 150 nM HER2 CAR mRNA comprising m6AGCap1 and PsU modifications. HER2+ breast cancer cells (CRL2351) were co-cultured with CAR macrophages after the macrophages were transfected with the CAR mRNA at an Effector (CAR macrophage) to Target (cancer cell) ratio of 3:1. Supernatant was collected 48 hours after the cancer cells and macrophages were co-cultured and cytokine levels were measured using a Meso Scale Discovery (MSD) instrument.

Human macrophages [3] = experiment: mCherry mRNA expression in transfected macrophages (Incucyte); type: cell-based; conditions: different doses, one day; FIG. 129
Protocol: Human macrophages were transfected with mCherry mRNA comprising m6AGCap1 and PsU or N1mPsU modifications and were then cultured for one day with different doses of IFN-γ. mCherry expression was monitored on an Incucyte® live imaging microscope.
In order to determine whether an RNaseL inhibitor could rescue IFN-γ-induced instability of transfected mRNA, human macrophages were treated with 1 μM sunitinib (an RNaseL inhibitor) two hours prior to the transfection of mCherry mRNA comprising m6AGCap1 and PsU modifications. Transfected cells were then cultured for one day with different dosages of IFN-γ. mCherry expression was monitored on an Incucyte® live imaging microscope.
The effect of another RNaseL inhibitor (RLI or ABCE1) was also tested to further validate the concept. Human macrophages were co-transfected with mRNA encoding mCherry comprising m6AGCap 1 and PsU modifications and with mRNA encoding ABCE1.

[4] = tested on: CRL-2351 cells expressing nuclear GFP; experiment: Tumor killing by macrophages and Her2-Zeta CAR macrophages primed with plate-coated agonist proteins (Incucyte); type: cell-based, human; conditions: plate-coated protein, 3 h priming; FIGS. 5A, 6A, 7A
Protocol: (§1) To generate Her2-Zeta CAR expressing macrophages, primary human macrophages were suspended in EP buffer (MaxCyte) containing 300 nM mRNA (TriLink) at a concentration of 90×10^6 cells/mL. 100 μL of cell mixture was added to an electroporation cassette (OC100×2; MaxCyte) and electroporated using the Experimental T cell 1 setting. Cells were removed from the cassette, plated in 3 mL of TexMACS media (Miltenyi Biotech) containing 20% FBS (Gibco) on UpCell plates (Thermo Scientific), and incubated overnight at 37 C and 5% CO2.
(§2) Recombinant CD40 ligand (Peprotech), 4-1BB ligand (Enzo Life Sciences), and 4-1BB receptor (Peprotech) were resuspended in molecular grade water to a stock concentration of 100 μg/mL. Stock solution was then used to create working solutions in PBS ranging from 2-0.002 μg/mL. 100 uL of working solution was added to wells in a 96-well plate and left at room temperature for 4 h.
Plates were removed from the incubator and left at room temperature for 30 min. Cells were detached from plate, counted using the NC-200 automated cell counter (Chemomtech), and re-suspended in TexMACS media with 10% FBS. […] Cell lysis was detected using Incucyte® analysis (Essen Bioscience). Tumor cell death was calculated by integrated GFP intensity per well relative to time 0.

[5] = tested on: primary human macrophages; experiment: M1/M2 surface marker expression after priming with agonist proteins (flow cytometry); type: cell-based; conditions: mRNA CAR macrophages, 3 days on coated wells; FIGS. 5B, 6B, 7B
Protocol: as §1, §2
For detection of cell surface proteins, macrophages were plated onto wells coated with agonist molecules in a final volume of 200 uL TexMACS media+10% FBS+10 ng/mL GM-CSF and incubated for 3 days at 37 C and 5% CO2. Cells were incubated in 300 μL Accutase (Sigma) for 30 min and transferred to 96-well round bottom plate for staining. Cells were incubated in FACS buffer containing 20 μg/mL Her2-His for 20 min at RT, followed by incubation in Human TruStain FcX for 10 min at RT. […]

Molecule: IFN-α
- M1 phenotype (based on CD86 expression) (Human macrophages [1]): induction of an M1 phenotype
- M2 markers (based on CD163 expression) (Human macrophages [1]): reduction of M2 markers
- secretion of IL-6, IL-8 and TNFα [2]: increased secretion of the cytokines IL-6, IL-8 and TNFα

Molecule: IFN-γ: interferon cytokine that induces an M1 phenotype
- M1 phenotype (based on CD86 expression) (Human macrophages [1]): induction of an M1 phenotype
- M2 markers (based on CD163 expression) (Human macrophages [1]): reduction of M2 markers
- secretion of IL-6, IL-8 and TNFα [2]: increased secretion of the cytokines IL-6, IL-8 and TNFα
- mCherry mRNA expression (Human macrophages [3]): reduced mCherry mRNA expression

B1: CD40L: Recombinant CD40 ligand (Peprotech), a CD40 agonist (protein, UniProt P29965 113-261, looked up)
CD40 ligand, soluble form: MQKGDQNPQIAAHVISEASSKTTSVLQWAEKGYYTMSNNLVTLENGKQLTVKRQGLYYIYAQVTFCSNREASSQAPFIASLCLKSPGRFERILLRAANTHSSAKPCGQQSIHLGGVFELQPGASVFVNVTDPSQVSHGTGFTSFGLLKL
- tumor killing ability of macrophages and CAR macrophages [4]: significantly improved the tumor killing ability
- M1 phenotype (M1 and M2 markers) [5]: induced an M1 phenotype
